# Measurements: ChEMBL document CHEMBL3751795, “Discovery of pyridyl-based inhibitors of Plasmodium falciparum N-myristoyltransferase” (Medchemcomm, 2015)
# pEC50, pKi: −log10 of the molar value.
# Key:
# [1] = molecular target: T1, Glycylpeptide N-tetradecanoyltransferase (Plasmodium falciparum (isolate 3D7), UniProt Q8ILW6); conditions: read-out: Ki(app)
# T1 sequence (Q8ILW6 whole entry): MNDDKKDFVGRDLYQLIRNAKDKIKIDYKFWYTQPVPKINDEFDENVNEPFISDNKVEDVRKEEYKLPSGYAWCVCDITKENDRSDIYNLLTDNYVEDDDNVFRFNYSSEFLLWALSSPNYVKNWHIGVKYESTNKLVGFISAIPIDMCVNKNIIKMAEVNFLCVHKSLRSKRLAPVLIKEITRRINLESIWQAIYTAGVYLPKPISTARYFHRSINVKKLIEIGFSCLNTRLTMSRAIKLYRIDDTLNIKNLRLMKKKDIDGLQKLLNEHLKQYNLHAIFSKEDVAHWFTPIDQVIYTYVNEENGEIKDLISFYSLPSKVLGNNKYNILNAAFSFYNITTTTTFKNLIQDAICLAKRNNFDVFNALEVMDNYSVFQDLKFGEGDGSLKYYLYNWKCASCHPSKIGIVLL
# [2] = Cytotoxicity against human HepG2 cells after 48 hrs by MTS assay; type: cell-based; conditions: read-out: LD50
# [3] = molecular target: T2, Glycylpeptide N-tetradecanoyltransferase 1 (Homo sapiens, UniProt P30419)
# T2 sequence (P30419 whole entry): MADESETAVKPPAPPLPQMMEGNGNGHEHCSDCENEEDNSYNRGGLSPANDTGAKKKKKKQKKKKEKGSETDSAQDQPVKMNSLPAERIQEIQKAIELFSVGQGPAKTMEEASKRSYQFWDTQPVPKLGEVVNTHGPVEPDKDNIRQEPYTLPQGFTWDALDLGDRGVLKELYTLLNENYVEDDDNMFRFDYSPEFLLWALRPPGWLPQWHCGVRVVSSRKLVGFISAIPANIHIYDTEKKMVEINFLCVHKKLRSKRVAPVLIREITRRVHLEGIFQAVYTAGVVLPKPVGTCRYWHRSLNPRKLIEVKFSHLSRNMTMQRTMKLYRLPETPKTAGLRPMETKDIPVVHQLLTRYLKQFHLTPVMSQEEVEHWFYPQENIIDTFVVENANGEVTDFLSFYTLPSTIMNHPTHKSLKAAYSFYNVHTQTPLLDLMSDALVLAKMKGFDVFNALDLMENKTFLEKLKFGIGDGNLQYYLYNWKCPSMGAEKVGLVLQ
# Description: Inhibition of human NMT1 by 7-diethylamine-3-(4'maleimidylphenyl)-4-methylcoumarin based fluorescence assay
# [4] = test system: Plasmodium falciparum; test: Antiparasitic activity against Plasmodium falciparum 3D7 trophozoites infected in RBC assessed as reduction in cell viability incubated for 96 hrs SyBr green assay; conditions: 3D7, 96 h
SMILES,pKi [1],CC50 at 48 h [2] [nM],pKi [3],pEC50 [4]
Cc1ccc(-c2nc(Cc3ccccc3)no2)c(OC2CCNCC2)c1,6.21,–,–,–
Fc1cccc(-c2nc(Cc3ccccc3)no2)c1OC1CCNCC1,5.82,–,–,–
Cc1nn(C)c(C)c1Cc1noc(-c2cccnc2OC2CCNCC2)n1,7.55,> 100000,–,–
Fc1cccc(OC2CCNCC2)c1-c1nc(Cc2ccccc2)no1,5.32,–,–,–
COc1cccc(Cc2noc(-c3ccc(Cl)cc3OC3CCNCC3)n2)c1,7.52,–,–,–
Fc1ccc(-c2nc(Cc3ccccc3)no2)c(OC2CCNCC2)c1,6.66,–,5.31,–
Fc1ccc(OC2CCNCC2)c(-c2nc(Cc3ccccc3)no2)c1,6.62,–,6.00,–
Clc1ccc(-c2nc(Cc3ccccc3)no2)c(OC2CCNCC2)c1,6.54,–,–,–
c1ccc(Cc2noc(-c3ncccc3OC3CCNCC3)n2)cc1,4.54,–,–,–
COc1cccc(Cc2noc(-c3cccnc3OC3CCNCC3)n2)c1,7.57,–,–,–
COc1cccc(Cc2noc(-c3ccc(OC)cc3OC3CCNCC3)n2)c1,7.15,–,–,–
Cc1nn(C)c(C)c1Cc1noc(-c2cccnc2OC2CCN(C(C)C)CC2)n1,7.05,> 100000,–,–
COc1ccc(OC2CCNCC2)c(-c2nc(Cc3ccccc3)no2)c1,5.34,–,5.64,–
COc1cccc(Cc2noc(-c3ccccc3OC3CCNCC3)n2)c1,6.72,–,5.85,–
c1ccc(Cc2noc(-c3cccnc3OC3CCNCC3)n2)cc1,6.85,–,5.77,–
Cc1ccc(OC2CCNCC2)c(-c2nc(Cc3ccccc3)no2)c1,4.54,–,–,–
COc1ccc(-c2nc(Cc3ccccc3)no2)c(OC2CCNCC2)c1,6.74,–,5.92,–
COc1cccc(-c2nc(Cc3ccccc3)no2)c1OC1CCNCC1,4.77,–,–,–
Cc1cccc(-c2nc(Cc3ccccc3)no2)c1OC1CCNCC1,4.41,–,–,–
c1cnc(OC2CCNCC2)c(-c2nc(Cc3cccc4ncccc34)no2)c1,8.77,65000,7.62,6.68
c1ccc(Cc2noc(-c3ccccc3OC3CCNCC3)n2)cc1,5.85,–,–,–
Clc1ccc(OC2CCNCC2)c(-c2nc(Cc3ccccc3)no2)c1,6.28,–,–,–
COc1cccc(Cc2noc(-c3ccc(F)cc3OC3CCNCC3)n2)c1,7.15,–,–,–
Cc1nn(C)c(C)c1Cc1noc(-c2cccnc2OC2CCN(C)CC2)n1,6.24,–,–,< 4.52
CCN1CCC(Oc2ncccc2-c2nc(Cc3c(C)nn(C)c3C)no2)CC1,6.47,–,–,< 5.00
